Test results taken from ChEMBL document CHEMBL1201862, “PubChem BioAssay data set” (2004).
Activity calls are given as the source filed them. No stated cut-off is given here; in the data, actives have a measured Ki and inactives only a lower limit.

Key:
[1] = molecular target: Cyclin-dependent kinase 19 (Homo sapiens, UniProt Q9BWU1); experiment: Navigating the Kinome. Panel member name: CDC2L6; format: functional
[2] = molecular target: Focal adhesion kinase 1 (Homo sapiens, UniProt Q05397); format: functional;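 further: measured as one member of a kinome panel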
Focal adhesion kinase 1, sequence (Q05397 whole entry): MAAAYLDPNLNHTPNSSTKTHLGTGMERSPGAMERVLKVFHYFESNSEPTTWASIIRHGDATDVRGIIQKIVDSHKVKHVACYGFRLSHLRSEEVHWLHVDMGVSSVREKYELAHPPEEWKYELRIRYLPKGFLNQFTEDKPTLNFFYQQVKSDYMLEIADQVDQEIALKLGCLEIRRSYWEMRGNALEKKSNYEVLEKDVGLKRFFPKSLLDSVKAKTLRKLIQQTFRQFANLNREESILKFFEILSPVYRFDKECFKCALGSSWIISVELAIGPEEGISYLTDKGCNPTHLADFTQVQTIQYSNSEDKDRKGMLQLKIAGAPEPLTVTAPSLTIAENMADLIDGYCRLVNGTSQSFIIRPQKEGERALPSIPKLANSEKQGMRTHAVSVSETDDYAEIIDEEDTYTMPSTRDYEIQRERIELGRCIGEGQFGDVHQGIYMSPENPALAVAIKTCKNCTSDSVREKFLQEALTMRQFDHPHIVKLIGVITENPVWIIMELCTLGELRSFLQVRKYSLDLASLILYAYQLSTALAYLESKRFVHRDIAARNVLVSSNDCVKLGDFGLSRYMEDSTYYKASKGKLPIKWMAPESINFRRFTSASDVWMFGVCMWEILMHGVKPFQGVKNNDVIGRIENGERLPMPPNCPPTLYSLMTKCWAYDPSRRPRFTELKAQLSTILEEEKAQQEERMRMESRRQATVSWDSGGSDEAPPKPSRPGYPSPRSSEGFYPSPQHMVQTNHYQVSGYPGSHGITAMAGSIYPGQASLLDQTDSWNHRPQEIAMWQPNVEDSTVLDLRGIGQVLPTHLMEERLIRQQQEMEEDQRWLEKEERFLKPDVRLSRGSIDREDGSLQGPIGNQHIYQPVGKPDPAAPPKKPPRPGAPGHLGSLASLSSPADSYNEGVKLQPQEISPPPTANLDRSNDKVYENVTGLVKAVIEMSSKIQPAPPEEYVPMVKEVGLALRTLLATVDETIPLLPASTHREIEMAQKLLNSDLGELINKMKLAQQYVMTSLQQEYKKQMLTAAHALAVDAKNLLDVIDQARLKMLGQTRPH

Cyclin-dependent kinase 19, sequence (Q9BWU1 whole entry): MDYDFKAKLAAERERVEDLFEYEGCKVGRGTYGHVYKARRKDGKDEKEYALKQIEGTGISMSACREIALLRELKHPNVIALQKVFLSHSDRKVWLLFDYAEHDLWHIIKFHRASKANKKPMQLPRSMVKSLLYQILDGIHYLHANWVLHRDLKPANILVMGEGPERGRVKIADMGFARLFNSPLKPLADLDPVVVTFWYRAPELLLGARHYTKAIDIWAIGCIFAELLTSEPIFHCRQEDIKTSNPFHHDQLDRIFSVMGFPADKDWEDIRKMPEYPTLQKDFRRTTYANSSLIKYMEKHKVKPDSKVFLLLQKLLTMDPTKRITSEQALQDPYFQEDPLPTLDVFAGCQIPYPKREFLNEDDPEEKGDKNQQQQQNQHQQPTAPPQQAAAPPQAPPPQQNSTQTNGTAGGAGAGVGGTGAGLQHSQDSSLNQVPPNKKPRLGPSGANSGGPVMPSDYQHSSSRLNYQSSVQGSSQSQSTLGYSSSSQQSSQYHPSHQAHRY

`COc1cccc(C(=O)Nc2cccc(-c3nc4sccn4c3-c3ccnc(Nc4ccc(N5CCOCC5)cc4)n3)c2)c1` was tested, and the Ki [1] was 10 µM (active) and the Ki [2] was 0.631 µM (active).
